Experimental data from patent publication US20140017339A1, “MATERIALS AND METHODS FOR TREATING RADIATION POISONING” (priority 2010, published 2014).

Tests used:
[1] = system: marrow HPC of irradiated mice; assay: Colony assays: total CFC (CFU-GM, BFU-E, CFU-GEMM) per femur after irradiation; format: in vivo, C57B1/6 mice
Description: After 30 days, analysis of total CFC(CFU-GM, BFU-E and CFU-GEMM) was performed in methylcellulose culture. Referring now to FIG. 2B, data are Mean±SEM from N=5 mice per group, each assayed individually.
Irradiated mice were identified by ear punches and treated with either a single subcutaneous dose of dmPGE2 (40 μg/mouse) or vehicle control at 6 hours post-irradiation (N=20 mice per group, evenly split male/female); 6 mg/kg meloxicam dosed once daily on days 2 through 5 post-irradiation or vehicle control (N=20 or 40 mice per group, respectively, evenly split male/female); or a single subcutaneous dose of CoCl2 (60 mg/kg) at 6 hours post-irradiation (N=20 mice per group, evenly split male/female). One mouse per treatment group was housed in each individual cage.
After 35 days, remaining irradiated mice were sacrificed, bone marrow acquired from femurs, and total CFC including CFU-GM, BFU-E and CFU-GEMM were enumerated in 1% methylcellulose/IMDM containing 30% HI-FBS, 1 U/ml rhEPO, 10 ng/ml rhGM-CSF and 50 ng/ml rmSCF as described (Broxmeyer et al., 2007; Fukuda et al., 2007). All cultures were established in triplicate from individual animals, incubated at 37° C., 5% CO2, 5% O2 in air for 7 days and colonies quantified by microscopy.
Referring now to FIG. 2B, after 30 days, analysis of total CFC(CFU-GM, BFU-E and CFU-GEMM) was performed in methylcellulose culture. Data are Mean±SEM from N=5 mice per group, each assayed individually.

[2] = system: irradiated mice (796 cGys, LD50); assay: 30-day survival after irradiation, murine HS-ARS model; format: in vivo, C57B1/6 mice; conditions: 30 days
Description: Male and female C57B1/6 mice were purchased from Jackson Laboratories at 10-12 weeks of age. Mice were housed in microisolator cages (5 mice per cage) with sterilized direct contact bedding (Alpha Dri). Animal holding rooms were maintained at 21±3° C. with 30 to 80% relative humidity, with at least 10 air changes per hour of 100% fresh air, and a 12-hour light/dark cycle. Mice were fed ad libitum with commercial rodent chow (Harlan 2018SXC) in cage hoppers and acidified (pH 2.0-3.0) water in sipper tube bottles. The Institutional Animal Care and Use Committee of IUSM approved all protocols.
Mice were placed in single chambers of a plexiglass irradiation pie (Braintree), with 15 mice per pie, alternating groups of males and females within the same pie. The mice in each group of mice, irradiated together in the same pie, were divided equally among all treatment groups to ensure that each group received the same irradiation exposure conditions. […]
Cohorts of 20-40 mice were irradiated with an LD50 dose from a ^137Cs source. […] Animals were monitored for morbidity and mortality twice/daily for 30 days and euthanized when moribund. Referring now to FIG. 2A, survival curves were analyzed with a log-rank test. […]
Moribund mice were scored for signs of early euthanasia based on three parameters: the severity of hunched posture, squinted/closed eyes, and decreased activity. Each criterion was scored on a scale of 1 to 3, with 3 being the most severe. Moribund mice with a score of 8 or 9 were euthanized and the date of death was recorded.
Irradiated mice with therapeutic exogenously provided amounts of PGE2 mitigated the damage to hematopoietic cells observed post-irradiation with dmPGE2 treatment, using a murine HS-ARS model developed by Dr. Orschell at IUSM. […] Animals were monitored for morbidity and mortality twice/daily for 30 days and euthanized when moribund. Survival curves were analyzed with a log-rank test.

[3] = system: HSC; conditions: WO 2010/054271, cited from earlier work
[4] = system: bone marrow HPC; assay: NSAID effect on bone marrow progenitor cell expansion in non-irradiated mice (CFU-GM); format: in vivo; conditions: NSAID twice daily for 4 days, assayed on day 5
Description: Mice were administered dual (Indomethacin, meloxicam), COX2 selective (Valdecoxib) or COX1 selective (SC560) inhibitors twice daily for 4 days. Referring now to FIG. 1, on day 5, mice were sacrificed, bone marrow from one femur isolated, total nucleated cells counted on a Hemavet 950FS and CFU-GM determined. Data are Mean±SEM for N=5 mice per group, each assayed individually.

[Cl][Co][Cl] [CoCl2, cobalt chloride]
CFC in bone marrow ([1]; single subcutaneous dose 60 mg/kg at 6 hours post-irradiation, day 35): significantly increased CFC in bone marrow | percent survival ([2]; single subcutaneous dose 60 mg/kg at 6 hours post-irradiation, P=0.0011): 95%

CCCCC(C)(C)[C@H](O)/C=C/[C@H]1[C@H](O)CC(=O)[C@@H]1C/C=C\CCCC(=O)O [dmPGE2, 16,16 dimethyl prostaglandin E2]
marrow HPC (total CFC per femur) versus control irradiated mice ([1]; single subcutaneous dose 40 μg/mouse at 6 hours post-irradiation, 796 cGys, day 35): significantly higher than control irradiated mice | percent survival ([2]; single subcutaneous dose 40 μg/mouse at 6 hours post-irradiation, 796 cGys, control 50% survival, P=0.0011): 95%

CCCCC[C@H](O)/C=C/[C@H]1[C@H](O)CC(=O)[C@@H]1C/C=C\CCCC(=O)O [PGE2, prostaglandin E2]
homing/engraftment in bone marrow transplants [3]: increased homing/engraftment | apoptosis of HSC ([3]; through up-regulation of Survivin): decreased apoptosis

Cc1cnc(NC(=O)C2=C(O)c3ccccc3S(=O)(=O)N2C)s1 [meloxicam, 4-hydroxy-2-methyl-N-(5-methyl-2-thiazolyl)-2H-1,2-benzothiazine-3-carboxamide-1,1-dioxide]
bone marrow CFC content versus control ([1]; 6 mg/kg once daily on days 2 through 5 post-irradiation, femurs 35 days post-irradiation): significantly increased bone marrow CFC content compared to control | percent survival ([2]; 6 mg/kg once daily on days 2 through 5 post-irradiation, control 50% survival, P=0.034): 80% | HPC expansion in bone marrow [4]: increase HPCs within the bone marrow
